Experimental data taken from PMC3169411, “Structure of aldose reductase from Giardia lamblia” (Acta Crystallographica Section F: Structural Biology and …, 2011).

Biological target: T1, G. lamblia aldose reductase (Giardia duodenalis, UniProt A8BGX6)
T1 construct: gene GL50803_007260; full-length; E. coli BL21(DE3); observed Ser0-Asp313; dimer
T1 sequence (A8BGX6 1-313): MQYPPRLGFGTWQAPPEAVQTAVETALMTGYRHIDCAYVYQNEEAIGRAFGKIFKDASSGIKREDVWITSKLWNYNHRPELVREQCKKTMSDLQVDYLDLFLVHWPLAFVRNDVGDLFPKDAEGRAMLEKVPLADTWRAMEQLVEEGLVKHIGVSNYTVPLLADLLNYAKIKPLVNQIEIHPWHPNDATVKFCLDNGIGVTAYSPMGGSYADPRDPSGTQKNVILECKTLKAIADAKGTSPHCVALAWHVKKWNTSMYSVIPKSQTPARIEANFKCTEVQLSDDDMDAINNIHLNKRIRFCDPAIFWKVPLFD
Experiment: X-ray crystallography, […] Å
Format: binding
Settings: co-purified (none added); crystals from 20% PEG 3350, 200 mM sodium formate, 100 mM Bis-Tris propane; cofactor site, Arg269 and His242

## NC(=O)c1ccc[n+]([C@@H]2O[C@H](COP(=O)(O)OP(=O)(O)OC[C@H]3O[C@@H](n4cnc5c(N)ncnc54)[C@H](OP(=O)(O)O)[C@@H]3O)[C@@H](O)[C@H]2O)c1 [NADP^+]
  X-ray crystallography, 1.75 Å: One NADP^+ molecule and one ethylene glycol molecule were modelled in each chain
